For four compounds, IC50 results are on record in US6780869B1, “Pyrimidine derivatives” (SmithKline Beecham Corporation, priority 1999, dated 2004).

Test [1] has as its target T1, COX-1 (Homo sapiens, UniProt P23219). The test can be described thus: Cell based assay, COS cells stably transfected with human COX-1, PGE2 release. Particulars: inhibition of PGE2 release, 30 μM arachidonic acid. Also on record: expressed in transfected cells; host or cells: COS cells (stably transfected). The protocol: (§1) Inhibitory activity against human COX-1 and COX-2 was assessed in COS cells which had been stably transfected with EDNA for human COX-1 and human COX-2. 24 Hours prior to experiment, COS cells were transferred from the 175 cm^2 flasks in which they were grown, onto 24-well cell culture plates using the following procedure. The incubation medium (Dulbecco's modified eagles medium (DMEM) supplemented with heat-inactivated foetal calf serum (10% v/v), penicillin (100 IU/ml), streptomycin (100 μg/ml) and geneticin (600 μg/ml)) was removed from a flask of confluent cells (1 flask at confluency contains approximately 1×10^7 cells). 5 ml of phosphate buffered saline (PBS) was added to the flask to wash the cells. Having discarded the PBS, cells were then incubated with 5 ml trypsin for 5 minutes in an incubator (37°). The flask was then removed from the incubator and 5 ml of fresh incubation medium was added. The contents of the flask was transferred to a 250 ml sterile container and the volume of incubation medium subsequently made up to 100 ml. 1 ml cell suspension was pipetted into each well of 4×24-well cell culture plates. The plates were then placed in an incubator (37° C., 95% air/5% CO2) overnight. If more than 1 flask of cells were required, the cells from the individual flasks were combined before being dispensed into the 24-well plates.
Following the overnight incubation, the incubation medium was completely removed from the 24-well cell culture plates and replaced with 250 μl fresh DMEM (37° C.). The test compounds were made up to 250× the required test concentration in DMSO and were added to the wells in a volume of 1 μl. Plates were then mixed gently by swirling and then placed in an incubator for 1 hour (37° C., 95% air/5% CO2). Following the incubation period, 10 μl of arachidonic acid (750 μM) was added to each well to give a final arachidonic acid concentration of 30 μM. […] The selectivity ratio of inhibition of COX-1 versus COX-2 was calculated by comparing respective IC50 values.

In another test the target is T2, human COX-2 (Homo sapiens, UniProt P35354).
T2 construct: expressed in transfected cells; host or cells: COS cells (stably transfected)
T2 sequence (P35354 18-604): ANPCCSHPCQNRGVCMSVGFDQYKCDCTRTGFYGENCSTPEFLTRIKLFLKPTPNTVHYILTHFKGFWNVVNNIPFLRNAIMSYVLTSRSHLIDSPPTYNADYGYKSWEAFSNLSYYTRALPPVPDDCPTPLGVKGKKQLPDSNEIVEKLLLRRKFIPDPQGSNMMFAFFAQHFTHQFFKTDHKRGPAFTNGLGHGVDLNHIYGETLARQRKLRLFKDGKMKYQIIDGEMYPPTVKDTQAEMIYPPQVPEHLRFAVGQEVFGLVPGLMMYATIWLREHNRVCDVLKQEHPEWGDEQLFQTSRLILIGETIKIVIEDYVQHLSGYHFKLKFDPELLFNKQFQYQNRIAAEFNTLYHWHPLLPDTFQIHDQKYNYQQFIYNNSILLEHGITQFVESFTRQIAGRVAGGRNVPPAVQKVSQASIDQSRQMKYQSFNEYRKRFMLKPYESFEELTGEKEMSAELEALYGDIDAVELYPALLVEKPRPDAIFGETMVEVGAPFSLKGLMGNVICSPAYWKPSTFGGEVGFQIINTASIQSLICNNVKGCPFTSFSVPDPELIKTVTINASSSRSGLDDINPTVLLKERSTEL
The test can be described thus: Cell based assay, COS cells stably transfected with human COX-2, PGE2 release. Particulars: inhibition of PGE2 release, 30 μM arachidonic acid. As to the method:
as §1, with “24” for “Inhibitory activity against human COX-1 and COX-2 was assessed in COS cells which had been stably transfected with EDNA for human COX-1 and human COX-2. 24”, “Having discarded the PBS, cells were then incubated with 5 ml trypsin for 5 minutes in an incubator (37°).” left out
Following the overnight incubation, the incubation medium was completely removed from the 24-well cell culture plates and replaced with 250 μl fresh DMEM (37° C.). The test compounds were made up to 250× the required test concentration in DMSO and were added to the wells in a volume of 1 μl. Plates were then mixed gently by swirling and then placed in an incubator for 1 hour (37° C., 95% air/5% CO2). […] Plates were then incubated for a further 10 minutes, after which the incubation medium was removed from each well of the plates and stored at −20° C., prior to determination of prostaglandin E2 (PGE2) levels using enzyme immunoassay. […] The selectivity ratio of inhibition of COX-1 versus COX-2 was calculated by comparing respective IC50 values.

For test [2], the target named is T1, COX-1. The test can be described thus: Microsomal assay, COX-1. Format: biochemical.
In a further test the target is T3, microsomal h-COX2 (Homo sapiens, UniProt P35354).
T3 construct: made in house; host or cells: baculovirus infected SF9 cells (microsomal preparation)
T3 sequence (P35354 18-604): T2 sequence (P35354 18-604)
The test is described as follows: Microsomal assay, microsomal preparation from baculovirus infected SF9 cells, PGE2 by EIA. Format: biochemical. The settings on record: 0.1 μM arachidonic acid, read-out: COX-2: IC50. As to the method:
Inhibitory activity against microsomal h-COX2 was assessed against a microsomal preparation from baculovirus infected SF9 cells. An aliquot of microsomal preparation was thawed slowly on ice and a 1/40,000 dilution prepared from it into the assay buffer (sterile water, degassed with argon containing 100 mM HEPES (pH 7.4), 10 mM EDTA (pH7.4), 1 mM phenol, 1 mM reduced glutathione, 20 mg/ml gelatin and 0.001 mM Hematin). Once diluted the enzyme solution was then sonicated for 5 seconds (Branson sonicator, setting 4, 1 cm tip) to ensure a homogeneous suspension. 155 μl enzyme solution was then added to each well of a 96-well microtitre plate containing either 5 μl test compound (40× required test concentration) or 5 μl DMSO for controls. Plates were then mixed and incubated at room temperature for 1 hour. Following the incubation period, 40 μl of 0.5 μM arachidonic acid was added to each well to give a final concentration of 0.1 μM. Plates were then mixed and incubated for exactly 10 minutes (room temperature) prior to addition of 25 μl 1M HCl (hydrochloric acid) to each well to stop the reaction. 25 μl of 1M NaOH (sodium hydroxide) was then added to each well to neutralise the solution prior to determination of PGE2 levels by enzyme immunoassay (EIA).

T1 sequence (P23219 24-599): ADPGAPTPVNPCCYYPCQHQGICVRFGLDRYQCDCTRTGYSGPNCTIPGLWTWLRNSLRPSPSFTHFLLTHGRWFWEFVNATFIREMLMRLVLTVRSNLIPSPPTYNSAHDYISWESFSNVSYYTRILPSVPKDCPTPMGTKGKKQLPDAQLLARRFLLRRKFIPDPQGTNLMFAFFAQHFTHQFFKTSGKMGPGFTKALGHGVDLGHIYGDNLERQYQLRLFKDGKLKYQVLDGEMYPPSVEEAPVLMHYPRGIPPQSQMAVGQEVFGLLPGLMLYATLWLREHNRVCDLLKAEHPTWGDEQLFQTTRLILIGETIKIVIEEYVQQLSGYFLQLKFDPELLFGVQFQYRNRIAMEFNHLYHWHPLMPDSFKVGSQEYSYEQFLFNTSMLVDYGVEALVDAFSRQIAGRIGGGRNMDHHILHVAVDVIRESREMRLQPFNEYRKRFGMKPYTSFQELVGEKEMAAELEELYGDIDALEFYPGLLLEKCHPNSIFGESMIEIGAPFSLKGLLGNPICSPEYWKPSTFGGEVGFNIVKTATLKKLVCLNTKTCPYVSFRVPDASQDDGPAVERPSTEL

In the case of `CS(=O)(=O)c1ccc(-c2cc(C(F)(F)F)nc(NC3CCCC3)n2)cc1` [Example 1, N-cyclopentyl-4-[4-(methylsulfonyl)phenyl]-6-(trifluoromethyl)pyrimidin-2-amine], the half-maximal inhibitory concentration (IC50) (in general, the midpoint of a concentration-inhibition curve) against COX-1 [1] was over 24600 nM; against human COX-2, 0.1 nM.

With `CC(C)CNc1nc(-c2ccc(S(C)(=O)=O)cc2)cc(C(F)(F)F)n1` [Example 8, N-isobutyl-4-[4-(methylsulfonyl)phenyl]-6-(trifluoromethyl)pyrimidin-2-amine], the half-inhibitory concentration (IC50) against COX-1 [2] is over 100000 nM; at microsomal h-COX2 it was 12 nM; at COX-1 [1] it was over 66000 nM; at human COX-2, 2 nM.

As for `CS(=O)(=O)c1ccc(-c2cc(C(F)(F)F)nc(NCC3CCC3)n2)cc1` [Example 31, N-(cyclobutylmethyl)-4-[4-(methylsulfonyl)phenyl]-6-(trifluoromethyl)pyrimidin-2-amine], the IC50 was over 100000 nM against COX-1 [2] and under 1 nM at microsomal h-COX2.

On to `CS(=O)(=O)c1ccc(-c2cc(C(F)(F)F)nc(NC3CCCCC3)n2)cc1` [Example 2, N-cyclohexyl-4-[4-(methylsulfonyl)phenyl]-6-(trifluoromethyl)pyrimidin-2-amine], for which the IC50 is over 58400 nM at COX-1 [1] and 0.5 nM against human COX-2.
